For series [1], the system named is Xenopus laevis embryos (stage 8 and stage 15). Put plainly: Verification of microarray analysis by RT-PCR with biotinylated primers. In kind it is in vivo. The conditions noted are these: for expression of genes of ESTs PBX0135A08 and PBX013409: microarray and RT-PCR in agreement. The text has this: Up-regulation of the clone Nos. PBX0135A08 and PBX0134E09 (underlined and shaded genes in Table 1, Panel A) were verified by RT-PCR of the genes. […] The DNA product obtained by RT-PCR using biotinylated primers of clone No. PBX0135A08 was separated by 1% agarose gel electophoresis and visualized by ethidium bromide staining (FIG. 3, Panel A). The DNA fragments were blotted to a nitrocellulose membrane and visualized by a streptavidin-horseradish peroxidase/ECL system (FIG. 3, Panel B). Though a single band for each reaction was visible in the ethidium bromide stained gel (FIG. 3, Panel A), multiple bands were obtained by the ECL system (FIG. 3, Panel B). When the biotin-labeled DNA in the gel was depurinated and denaturated by treatment with 0.25 M HCl followed by 1.5 M NaCl/0.56 N NaOH, the major 380 bp species were efficiently transferred and similar pattern to that observed using the ECL method was obtained (FIG. 3, Panel C). The effect was also observed with RT-PCR of clone No. PBX0134E09. mRNA levels of clones No. PBX0135A08 and No. PBX013409 increased after PMA treatment at stage 8 (Table 2).
In FIG. 3 the DNA products were obtained from 2 independent RT-PCR reactions using mRNA from untreated blastula stage 8 embryos (lanes 1 and 2), PMA-treated cleavage stage 8 embryos (lanes 3 and 4), untreated neurula stage 15 embryos (lanes 5 and 6), and PMA-treated neurula stage 15 embryos (lane 7 and 8). The 380 bp biotin-labeled DNA fragments were separated by gel electrophoresis on 1% agarose gel without further treatment (panel A and B) or following depurination and denaturation (panel C). In panel A, the DNA was detected by ultraviolet light following ethidium bromide staining. In panels B and C, the DNA was transferred to nitrocellulose membrane and detected by streptavidin-horseradish peroxidase ECL.

A further series has as its system Xenopus laevis embryos. Put plainly: Embryonic morphology after PMA treatment. In kind it is in vivo. As to the method:
Embryos were sorted for successful cleavage to 2 cells (1.5 hours after fertilization), split into groups for subsequent treatment (triplicate treatments per each experimental group) and visually monitored for normal embryonic morphology. Rates of abnormal morphology were recorded for each group. Embryos at stage 8 were obtained after incubation of the fertilized embryos at 23° C. for 5 hours. PMA (100 ng/ml) or DMSO (0.01%, solvent used to dissolve PMA) was added to the embryos 2 hours after fertilization. […] Embryos at stage 15 were obtained after incubation of the fertilized embryos at 18° C. for 30 hours (the condition produced stage 15 embryos identical to embryos obtained at 23° C. for 10 hours). PMA or DMSO was added to the embryos 21 hours after fertilization.

SMILES strings stand for the structures.

In the case of `CCCCCCCCCCCCCC(=O)O[C@@H]1[C@@H](C)[C@@]2(O)[C@@H](C=C(CO)C[C@]3(O)C(=O)C(C)=C[C@@H]23)[C@@H]2C(C)(C)[C@]12OC(C)=O` [PMA, phorbol 12-myristate 12-acetate], the “expression of genes of ESTs PBX0135A08 and PBX013409” value was “highly up-regulated” in series [1] (cleavage embryos, stage 8) and “unaffected” in series [1] (embryos undergoing neurulation, stage 15). Besides, the “% increase of mRNA expression by RT-PCR” value in series [1] (gene PBX0135A08, Stage 8) is recorded as 260% of control; in series [1] (gene PBX0135A08, Stage 15), “no change”; in series [1] (gene PBX013409, Stage 8, not detected in control but strong band after PMA treatment), “highly induced^b”; in series [1] (gene PBX013409, Stage 15), “no change”. For the same compound, the “embryo morphology / developmental stage reached” value is recorded as “remained in a pre-blastula stage” in the series on Xenopus laevis embryos (100 ng/ml added 2 hours after fertilization, 23° C. for 5 hours, untreated progressed to blastula) and “in a pre-neurula stage” in the series on Xenopus laevis embryos (added 21 hours after fertilization, 18° C. for 30 hours, untreated showed typical neurula).

(Values after patent US20080145858A1, “DETECTION AND IDENTIFICATION OF TOXICANTS BY MEASUREMENT OF GENE […]” (priority 2003, published 2008).)
